Experimental data: patent US20230278972A1, “SUBSTITUTED HALOALKYL SULFONANILIDE HERBICIDES” (FMC Corporation, priority 2020, published 2023)

Columns and labels:
Assay type in all cases: in vivo
[1] = system: blackgrass (Alopecurus myosuroides); experiment: Test A1 preemergence, blackgrass
Procedure, shortened: (§1)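 Seeds were first planted into a blend of loam soil and sand and given a preemergence directed soil spray. In parallel, pots of the same soil were sown for postemergence application once plants reached 2 to 10 cm and the one- to two-leaf stage. Both used surfactant-containing non-phytotoxic solvent formulations.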

corn (Zea mays) = experiment: Test A1 preemergence, corn
Procedure, shortened: (§2)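 Test compounds were formulated in a non-phytotoxic solvent mixture containing a surfactant. For preemergence, seeds sown in a loam soil–sand blend received a directed soil spray. For postemergence, potted plants in the same soil, 2 to 10 cm tall at the one- to two-leaf stage, were sprayed.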

[2] = system: goosegrass (Eleusine indica); experiment: Test A1 preemergence, goosegrass
Procedure, shortened: as §1

[3] = system: Pigweed, Palmer (palmer amaranth, palmer pigweed, Amaranthus palmeri); experiment: Test A1 preemergence, Pigweed, Palmer
Procedure, shortened: as §1

[4] = system: ragweed (common ragweed, Ambrosia artemisiifolia); experiment: Test A1 preemergence, ragweed
Procedure, shortened: as §1

[5] = system: Pigweed, Palmer (palmer amaranth, palmer pigweed, Amaranthus palmeri); experiment: Test A1 postemergence, Pigweed, Palmer; settings: Postemergence
Procedure, shortened: as §2

[6] = system: ragweed (common ragweed, Ambrosia artemisiifolia); experiment: Test A1 postemergence, ragweed; settings: Postemergence
Procedure, shortened: as §2

[7] = system: galium (catchweed bedstraw, Galium aparine); experiment: Test A1 postemergence, galium; settings: Postemergence
Procedure, shortened: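 Herbicidal response was scored on plants treated either preemergence, by directed spray onto soil of a loam–sand blend after sowing, or postemergence on potted plants at the one- to two-leaf stage, 2–10 cm high. Test chemicals were carried in a non-phytotoxic solvent mix with surfactant.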

[8] = system: ducksalad (Heteranthera limosa); experiment: Test B1 flooded paddy test, ducksalad; settings: 250 g ai/ha, Flood, applied to paddy water, 2-leaf stage, visually evaluated after 10 to 14 days
Description: A dash (-) response means no test result.

[9] = 31 g ai/ha, 0 to 100 scale (0 no effect, 100 complete control)
[10] = 125 g ai/ha, 0 to 100 scale, 0 no effect, 100 complete control
[11] = 31 g ai/ha, 0 to 100 scale (0 no effect, 100 complete control), 10 days

Structure (SMILES) | Plant response rating, Blackgrass [1, 9] | Plant response rating, Blackgrass [1, 10] | Plant response rating, Corn (corn (Zea mays); [9]) | Plant response rating, Corn (corn (Zea mays); [10]) | Plant response rating, Goosegrass [2, 9] | Plant response rating, Goosegrass [2, 10] | Plant response rating, Pigweed, Palmer [3, 9] | Plant response rating, Pigweed, Palmer [3, 10] | Plant response rating, Ragweed [4, 9] | Plant response rating, Ragweed [4, 10] | Plant response rating, Pigweed, Palmer [5, 11] | Plant response rating, Pigweed, Palmer ([5]; 125 g ai/ha, 0 to 100 scale) | Plant response rating, Ragweed [6, 11] | Plant response rating, Ragweed ([6]; 125 g ai/ha, 0 to 100 scale) | Plant response rating, Galium [7, 11] | Plant response rating, Galium ([7]; 125 g ai/ha, 0 to 100 scale) | Plant response rating, Ducksalad (0 to 100 scale, 0 is no effect, 100 is complete control) [8]
Cc1c(C(=O)N(C)C)cc(NS(=O)(=O)C(F)(F)F)c(Cl)c1F [Compound 320] | 0 | 0 | 0 | 30 | 80 | 100 | 50 | 100 | 60 | 70 | 40 | 80 | 40 | 80 | 70 | 90 | 60
Cc1c(C(=O)N2CCOCC2)cc(NS(=O)(=O)C(F)(F)F)c(Cl)c1F [Compound 321] | 0 | 70 | 0 | 30 | 70 | 100 | 90 | 100 | 50 | 90 | 50 | 70 | 90 | 90 | 100 | 100 | 95
Cc1cc(C)c(C2=NOC(OCC(C)C)C2)cc1NS(=O)(=O)C(F)(F)F (centres unmarked) [Compound 322] | 0 | 70 | 0 | 30 | 0 | 90 | 40 | 90 | 20 | 30 | 0 | 50 | 70 | 80 | 40 | 70 | 0
CCCCOC1CC(c2cc(NS(=O)(=O)C(F)(F)F)c(C)cc2C)=NO1 (centres unmarked) [Compound 323] | 0 | 30 | 0 | 10 | 50 | 90 | 90 | 100 | 0 | 30 | 20 | 60 | 0 | 50 | 50 | 80 | 0
Cc1c(C(=O)N2CCOCC2)cc(N(COC(=O)C(C)(C)C)S(=O)(=O)C(F)(F)F)c(C)c1C [Compound 324, [[(Trifluoromethyl)sulfonyl][2,3,4-trimethyl-5-(4-morpholinylcarbonyl)phenyl]amino]methyl 2,2-dimethylpropanoate] | 20 | 30 | 20 | 40 | 80 | 100 | 100 | 100 | 20 | 80 | 30 | 70 | 70 | 70 | 50 | 80 | 80
CCOC(=O)N(c1cc(C(=O)N2CCOCC2)c(C)c(C)c1C)S(=O)(=O)C(F)(F)F [Compound 325] | 0 | 40 | 0 | 40 | 100 | 100 | 80 | 100 | 50 | 90 | 30 | 90 | 0 | 70 | 40 | 90 | 95
Cc1c(NS(=O)(=O)C(F)(F)F)cc(C(=O)N2CCCCC2)c(C)c1C [Compound 326] | 0 | 0 | 0 | 90 | 90 | 90 | 90 | 100 | 90 | 90 | 40 | 80 | 60 | 80 | 70 | 100 | 85
Cc1c(NS(=O)(=O)C(F)(F)F)cc(C(=O)N2CC(C)OC(C)C2)c(C)c1C (centres unmarked) [Compound 327] | 0 | 30 | 0 | 60 | 50 | 90 | 90 | 90 | 90 | 90 | 30 | 50 | 70 | 90 | 100 | 100 | 85
Cc1c(C(=O)N2CCCCC2)cc(N(COC(=O)C(C)(C)C)S(=O)(=O)C(F)(F)F)c(C)c1C [Compound 329, [[(Trifluoromethyl)sulfonyl][2,3,4-trimethyl-5-(1-piperidinylcarbonyl)phenyl]amino]methyl 2,2-dimethylpropanoate] | 0 | 0 | 0 | 0 | 20 | 100 | 10 | 50 | 60 | 70 | 10 | 10 | 40 | 70 | 50 | 80 | 60
Cc1c(C(=O)N2C[C@@H](C)O[C@@H](C)C2)cc(N(COC(=O)C(C)(C)C)S(=O)(=O)C(F)(F)F)c(C)c1C [Compound 331] | 0 | 0 | 0 | 0 | 0 | 90 | 0 | 30 | 0 | 90 | 0 | 20 | 70 | 80 | 60 | 90 | 80
